# Experimental data as given in patent US8741944B2, “Anti-infective agents against intracellular pathogens” (priority 2007, dated 2014).
# Experiments:
# [1] = system: A549/ATCC (Non-Small Cell Lung Cancer); test: NCI DTP tumor cell line screen (SRB), A549/ATCC
# Method: (§1) For a typical screening experiment, cells are inoculated into 96 well microtiter plates in 100 μL at plating densities ranging from 5,000 to 40,000 cells/well depending on the doubling time of individual cell lines. After cell inoculation, the microtiter plates are incubated at 37° C., 5% CO2, 95% air and 100% relative humidity for 24 h prior to addition of experimental drugs.
# (§2) After 24 h, two plates of each cell line are fixed in situ with TCA, to represent a measurement of the cell population for each cell line at the time of drug addition (Tz). Experimental drugs are solubilized in dimethyl sulfoxide at 400-fold the desired final maximum test concentration and stored frozen prior to use. At the time of drug addition, an aliquot of frozen concentrate is thawed and diluted to twice the desired final maximum test concentration with complete medium containing 50 μg/ml gentamicin. Additional four, 10-fold or ½ log serial dilutions are made to provide a total of five drug concentrations plus control. Aliquots of 100 μl of these different drug dilutions are added to the appropriate microtiter wells already containing 100 μl of medium, resulting in the required final drug concentrations.
# (§3) Following drug addition, the plates are incubated for an additional 48 h at 37° C., 5% CO2, 95% air, and 100% relative humidity. For adherent cells, the assay is terminated by the addition of cold TCA. Cells are fixed in situ by the gentle addition of 50 μl of cold 50% (w/v) TCA (final concentration, 10% TCA) and incubated for 60 minutes at 4° C. The supernatant is discarded, and the plates are washed five times with tap water and air dried. Sulforhodamine B (SRB) solution (1001) at 0.4% (w/v) in 1% acetic acid is added to each well, and plates are incubated for 10 minutes at room temperature. After staining, unbound dye is removed by washing five times with 1% acetic acid and the plates are air dried. Bound stain is subsequently solubilized with 10 mM trizma base, and the absorbance is read on an automated plate reader at a wavelength of 515 nm. For suspension cells, the methodology is the same except that the assay is terminated by fixing settled cells at the bottom of the wells by gently adding 50 μl of 80% TCA (final concentration, 16% TCA). Using the seven absorbance measurements [time zero, (Tz), control growth, (C), and test growth in the presence of drug at the five concentration levels (Ti)], the percentage growth is calculated at each of the drug concentrations levels. Percentage growth inhibition is calculated as: [(Ti−Tz)/(C−Tz)]×100 for concentrations for which Ti>/=Tz [(Ti−Tz)/Tz]×100 for concentrations for which Ti<Tz
# (§4) Three dose response parameters are calculated for each experimental agent. […] The drug concentration resulting in total growth inhibition (TGI) is calculated from Ti=Tz. […] Values are calculated for each of these three parameters if the level of activity is reached; however, if the effect is not reached or is exceeded, the value for that parameter is expressed as greater or less than the maximum or minimum concentration tested.
# TK-10 (Renal Cancer) = test: NCI DTP tumor cell line screen (SRB), TK-10
# Method: as §1, §2, §3, §4
# SR (Leukemia) = test: NCI DTP tumor cell line screen (SRB), SR
# Method: as §1, §2, §3, §4
# OVCAR-3 (Ovarian Cancer) = test: NCI DTP tumor cell line screen (SRB), OVCAR-3
# Method: as §1, §2, §3, §4
# UACC-62 (Melanoma) = test: NCI DTP tumor cell line screen (SRB), UACC-62
# Method: as §1, §2, §3, §4
# 786-0 (Renal Cancer) = test: NCI DTP tumor cell line screen (SRB), 786-0
# Method: as §1, §2, §3, §4
# UO-31 (Renal Cancer) = test: NCI DTP tumor cell line screen (SRB), UO-31
# Method: as §1, §2, §3, §4
# SK-OV-3 (Ovarian Cancer) = test: NCI DTP tumor cell line screen (SRB), SK-OV-3
# Method: as §1, §2, §3, §4
compound,measurement,setting,value
"NCC(=O)Nc1ccc(-n2nc(C(F)(F)F)cc2-c2ccc3c(ccc4ccccc43)c2)cc1 [Compound 70, 2-Amino-N-{4-[5-(2-phenanthrenyl)-3-(trifluoromethyl)-1H-pyrazol-1-yl]-phenyl}-acetamide]",Percent Growth,[1]; Log10 Concentration −5.0,−57%
same,Mean Optical Densities,[1]; Log10 Concentration −6.0,0.831
same,Percent Growth,[1]; Log10 Concentration −6.0,51%
same,Mean Optical Densities,[1]; Log10 Concentration −7.0,1.149
same,Percent Growth,[1]; Log10 Concentration −7.0,86%
same,Mean Optical Densities,[1]; Log10 Concentration −8.0,1.294
same,Percent Growth,[1]; Log10 Concentration −8.0,102%
same,TGI,TK-10 (Renal Cancer),3.10E−06
same,Mean Optical Densities,TK-10 (Renal Cancer); Log10 Concentration −4.0,0.200
same,Mean Optical Densities,TK-10 (Renal Cancer); Log10 Concentration −5.0,0.138
same,Percent Growth,TK-10 (Renal Cancer); Log10 Concentration −5.0,−80%
same,Mean Optical Densities,TK-10 (Renal Cancer); Log10 Concentration −6.0,1.304
same,Percent Growth,TK-10 (Renal Cancer); Log10 Concentration −6.0,77%
same,Mean Optical Densities,TK-10 (Renal Cancer); Log10 Concentration −7.0,1.492
same,Percent Growth,TK-10 (Renal Cancer); Log10 Concentration −7.0,100%
same,Mean Optical Densities,TK-10 (Renal Cancer); Log10 Concentration −8.0,1.512
same,Percent Growth,TK-10 (Renal Cancer); Log10 Concentration −8.0,102%
same,TGI,SR (Leukemia),4.17E−06
same,Mean Optical Densities,SR (Leukemia); Log10 Concentration −4.0,0.363
same,Mean Optical Densities,SR (Leukemia); Log10 Concentration −5.0,0.265
same,Percent Growth,SR (Leukemia); Log10 Concentration −5.0,−27%
same,Mean Optical Densities,SR (Leukemia); Log10 Concentration −6.0,0.605
same,Percent Growth,SR (Leukemia); Log10 Concentration −6.0,45%
same,Mean Optical Densities,SR (Leukemia); Log10 Concentration −7.0,0.796
same,Percent Growth,SR (Leukemia); Log10 Concentration −7.0,80%
same,Mean Optical Densities,SR (Leukemia); Log10 Concentration −8.0,0.816
same,Percent Growth,SR (Leukemia); Log10 Concentration −8.0,84%
same,TGI,OVCAR-3 (Ovarian Cancer),3.32E−06
same,Mean Optical Densities,OVCAR-3 (Ovarian Cancer); Log10 Concentration −4.0,0.301
same,Mean Optical Densities,OVCAR-3 (Ovarian Cancer); Log10 Concentration −5.0,0.140
same,Percent Growth,OVCAR-3 (Ovarian Cancer); Log10 Concentration −5.0,−70%
same,Mean Optical Densities,OVCAR-3 (Ovarian Cancer); Log10 Concentration −6.0,0.816
same,Percent Growth,OVCAR-3 (Ovarian Cancer); Log10 Concentration −6.0,76%
same,Mean Optical Densities,OVCAR-3 (Ovarian Cancer); Log10 Concentration −7.0,0.849
same,Percent Growth,OVCAR-3 (Ovarian Cancer); Log10 Concentration −7.0,83%
same,Mean Optical Densities,OVCAR-3 (Ovarian Cancer); Log10 Concentration −8.0,0.879
same,Percent Growth,OVCAR-3 (Ovarian Cancer); Log10 Concentration −8.0,89%
same,TGI,UACC-62 (Melanoma),3.15E−06
same,Mean Optical Densities,UACC-62 (Melanoma); Log10 Concentration −4.0,0.364
same,Mean Optical Densities,UACC-62 (Melanoma); Log10 Concentration −5.0,0.137
same,Percent Growth,UACC-62 (Melanoma); Log10 Concentration −5.0,−80%
same,Mean Optical Densities,UACC-62 (Melanoma); Log10 Concentration −6.0,1.407
same,Percent Growth,UACC-62 (Melanoma); Log10 Concentration −6.0,79%
same,Mean Optical Densities,UACC-62 (Melanoma); Log10 Concentration −7.0,1.546
same,Percent Growth,UACC-62 (Melanoma); Log10 Concentration −7.0,94%
same,Mean Optical Densities,UACC-62 (Melanoma); Log10 Concentration −8.0,1.649
same,Percent Growth,UACC-62 (Melanoma); Log10 Concentration −8.0,105%
same,TGI,786-0 (Renal Cancer),2.85E−06
same,Mean Optical Densities,786-0 (Renal Cancer); Log10 Concentration −4.0,0.299
same,Mean Optical Densities,786-0 (Renal Cancer); Log10 Concentration −5.0,0.181
same,Percent Growth,786-0 (Renal Cancer); Log10 Concentration −5.0,−72%
same,Mean Optical Densities,786-0 (Renal Cancer); Log10 Concentration −6.0,1.440
same,Percent Growth,786-0 (Renal Cancer); Log10 Concentration −6.0,60%
same,Mean Optical Densities,786-0 (Renal Cancer); Log10 Concentration −7.0,1.897
same,Percent Growth,786-0 (Renal Cancer); Log10 Concentration −7.0,95%
same,Mean Optical Densities,786-0 (Renal Cancer); Log10 Concentration −8.0,2.012
same,Percent Growth,786-0 (Renal Cancer); Log10 Concentration −8.0,104%
same,TGI,UO-31 (Renal Cancer),3.29E−06
same,Mean Optical Densities,UO-31 (Renal Cancer); Log10 Concentration −4.0,0.285
same,Mean Optical Densities,UO-31 (Renal Cancer); Log10 Concentration −5.0,0.161
same,Percent Growth,UO-31 (Renal Cancer); Log10 Concentration −5.0,−64%
same,Mean Optical Densities,UO-31 (Renal Cancer); Log10 Concentration −6.0,1.356
same,Percent Growth,UO-31 (Renal Cancer); Log10 Concentration −6.0,68%
same,Mean Optical Densities,UO-31 (Renal Cancer); Log10 Concentration −7.0,1.563
same,Percent Growth,UO-31 (Renal Cancer); Log10 Concentration −7.0,84%
same,Mean Optical Densities,UO-31 (Renal Cancer); Log10 Concentration −8.0,1.572
same,Percent Growth,UO-31 (Renal Cancer); Log10 Concentration −8.0,84%
same,TGI,SK-OV-3 (Ovarian Cancer),2.96E−06
same,Mean Optical Densities,SK-OV-3 (Ovarian Cancer); Log10 Concentration −4.0,0.302
same,Mean Optical Densities,SK-OV-3 (Ovarian Cancer); Log10 Concentration −5.0,0.083
same,Percent Growth,SK-OV-3 (Ovarian Cancer); Log10 Concentration −5.0,−79%
same,Mean Optical Densities,SK-OV-3 (Ovarian Cancer); Log10 Concentration −6.0,1.262
same,Percent Growth,SK-OV-3 (Ovarian Cancer); Log10 Concentration −6.0,71%
same,Mean Optical Densities,SK-OV-3 (Ovarian Cancer); Log10 Concentration −7.0,1.597
same,Percent Growth,SK-OV-3 (Ovarian Cancer); Log10 Concentration −7.0,98%
same,Mean Optical Densities,SK-OV-3 (Ovarian Cancer); Log10 Concentration −8.0,1.514
same,Percent Growth,SK-OV-3 (Ovarian Cancer); Log10 Concentration −8.0,91%
